Test results published in patent US11560400B2, “Salts of diphosphate phosphoramidate of nucleosides as anticancer compounds” (NuCana plc, priority 2017, dated 2023).
Counter-ions that a name gives are not always drawn. Like-named read-outs stand apart in the source and are kept apart here.

Tests used:
HT29 = assay: CellTiterGlo cell viability assay, HT29; format: cell-based; conditions: Homo sapiens, HT29, 72 h; for EC50: read-out: Ab EC50; for inhibition at 198 µM: percentage inhibition at the highest concentration tested, read-out: Top Inhibit
Procedure, shortened: (§1)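 Compounds, serially diluted 3.16-fold in DMSO and pre-warmed in media to 37 °C, were added to cells in duplicate (final 198 μM–19.8 nM, 0.5% DMSO). Plates incubated 3 days in a CO2 incubator before CellTiterGlo readout.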

MCF-7 = assay: CellTiterGlo cell viability assay, MCF-7; format: cell-based; conditions: MCF-7, 72 h; for EC50: read-out: Ab EC50; for inhibition at 198 µM: percentage inhibition at the highest concentration tested, read-out: Top Inhibit
Procedure, shortened: as §1

in vitro = conditions: human, pH 7.3
Mia-Pa-Ca-2 = assay: CellTiterGlo cell viability assay, Mia-Pa-Ca-2; format: cell-based; conditions: Homo sapiens, MIA PaCa-2, Mia-Pa-Ca-2, 72 h; for EC50: absolute EC50, read-out: Ab EC50; for inhibition at 198 µM: percentage inhibition at the highest concentration tested, read-out: Top Inhibit
Protocol: A subset of compounds of the invention were assayed for their cytotoxic activity in an array of different solid tumours and haematological malignancies using the following assay.
In vitro viability assay were performed to assess the effects of compounds on cell viability in selected cell lines over 72 h using the CellTiterGlo (CTG, Promega-G7573) assay. The tests were performed in duplicates with treatment of compounds at 9 points, 3.16 folds titration in 96 well plates over ˜72 h. The compound starting concentrations were 198 μM. Cell viability assay using CellTiterGlo in 96-well plate were performed. Compound treatment 72 h, standard growth conditions, duplicates. Compounds were dissolved to 40 mM with thawed […]. Compounds were serially diluted at 3.16 fold in thawed DMSO, and warmed to 37° C. before being dissolved in media (2 μL+200 μL). After compounds were dissolved in media, media containing compounds were warmed to 37° C. in incubator and then compounds in media were added to cell plates (50 μL+50 μL) in duplicates. The compounds' final concentrations were from 198 μM to 19.8 nM. All compound solubilities were checked and recorded again, then the plates were transferred to CO2 tissue culture incubator immediately and incubated for 3 days. DMSO final concentration is 0.5%. The parent nucleoside in each case was tested as a comparator, as was an exemplary ProTide. The drugs of the ProTide class that were tested were as follows:
The following cell lines were tested and are referred to in the Table 1 below:
In Tables 2, 3 and 4, ‘Ab EC50’ refers to the absolute EC50 and ‘Top inhibit’ refers to the percentage inhibition achieved at the highest concentration tested.

MOLT-4 = assay: CellTiterGlo cell viability assay, MOLT-4; format: cell-based
Procedure, shortened: as §1

RPMI-8226 = assay: CellTiterGlo cell viability assay, RPMI-8226; format: cell-based, Human
Procedure, shortened: as §1

HL-60 = assay: CellTiterGlo cell viability assay, HL-60; format: cell-based; conditions: Homo sapiens, HL-60, 72 h; for inhibition at 198 µM: read-out: Top Inh
Procedure, shortened: as §1

RL = assay: CellTiterGlo cell viability assay, RL; format: cell-based; conditions: Homo sapiens, 72 h
Procedure, shortened: as §1

K562 = assay: CellTiterGlo cell viability assay, K562; format: cell-based
Procedure, shortened: as §1

OVCAR 3 = assay: CellTiterGlo cell viability assay, OVCAR 3; format: cell-based; conditions: Homo sapiens; for EC50: read-out: Ab EC50; for inhibition at 198 µM: percentage inhibition at the highest concentration tested, read-out: Top Inhibit
Procedure, shortened: as §1

CCRF-CEM = assay: CellTiterGlo cell viability assay, CCRF-CEM; format: cell-based; conditions: 72 h; for EC50: read-out: Ab EC50; for inhibition at 198 µM: percentage inhibition at the highest concentration tested, read-out: Top Inh
Procedure, shortened: as §1

HepG2 = assay: CellTiterGlo cell viability assay, HepG2; format: cell-based
Procedure, shortened: as §1

KG-1 = assay: CellTiterGlo cell viability assay, KG-1; format: cell-based; conditions: Homo sapiens, KG-1, 72 h
Procedure, shortened: as §1

[1] = HT-29, 72 h, absolute EC50, numeric values
[2] = Homo sapiens, MCF7, 72 h, absolute EC50, numeric values
[3] = Homo sapiens, MOLT-4, 72 h, percentage inhibition at the highest concentration tested, read-out: Top Inh
[4] = Homo sapiens; MOLT-4, 72 h, absolute EC50, numeric values; read-out: Ab EC50
[5] = Homo sapiens, RPMI-8226, 72 h, absolute EC50, numeric values, read-out: Ab EC50
[6] = Homo sapiens, RPMI-8226, 72 h, percentage inhibition at the highest concentration tested, read-out: Top Inh
[7] = absolute EC50, numeric values, read-out: Ab EC50
[8] = percentage inhibition at the highest concentration tested
[9] = percentage inhibition at the highest concentration tested, read-out: Top Inh
[10] = Homo sapiens; K562, 72 h, absolute EC50, numeric values; read-out: Ab EC50
[11] = HT-29, absolute EC50, numeric values
[12] = Homo sapiens; RPMI-8226, 72 h, absolute EC50, numeric values; read-out: Ab EC50
[13] = Homo sapiens; RPMI-8226, 72 h, percentage inhibition at the highest concentration tested; read-out: Top Inh
[14] = OVCAR 3, 72 h, absolute EC50, numeric values
[15] = Homo sapiens, absolute EC50, numeric values
[16] = Homo sapiens; HepG2, 72 h, percentage inhibition at the highest concentration tested; read-out: Top Inhibit

C[C@H](NP(=O)(Oc1cccc2ccccc12)OP(=O)(O)OC[C@H]1O[C@@H](n2c(Cl)nc3c(N)ncnc32)[C@@H](O)C1O)C(=O)OCc1ccccc1 (stereo partly drawn) [Example 5, 8-Chloroadenosine-5′-O-[1-naphthyl-(benzoxy-L-alaninyl)]diphosphate Triethylammonium Salt]
EC50 (HT29; [1]): 1.41 µM
inhibition at 198 µM (HT29; HT-29, 72 h): 76.5%
EC50 (MCF-7; [2]): 1.69 µM
inhibition at 198 µM (MCF-7; Homo sapiens, MCF7, 72 h): 88%
half-life (in vitro; hepatocytes): 18 min
EC50 (Mia-Pa-Ca-2): 0.43 µM
inhibition at 198 µM (Mia-Pa-Ca-2): 87.6%

C[C@H](NP(=O)(Oc1ccccc1)OP(=O)(O)OC[C@@H]1C[C@H](OP(=O)(O)OP(=O)(N[C@@H](C)C(=O)OCc2ccccc2)Oc2ccccc2)[C@H](n2cnc3c(N)ncnc32)O1)C(=O)OCc1ccccc1 (stereo partly drawn) [Example 7, 3′-Deoxyadenosine-5′,2′-Bis-O-[phenyl(benzoxy-L-alaninyl)]-diphosphate Triethylammonium Salt]
inhibition at 198 µM (MOLT-4; [3]): 90%
EC50 (MOLT-4; [4]): 25.3 µM
EC50 (HT29; [1]): 7.79 µM
inhibition at 198 µM (HT29; HT-29, 72 h): 79%
EC50 (RPMI-8226; [5]): 1.6 µM
inhibition at 198 µM (RPMI-8226; [6]): 98%
EC50 (HL-60; [7]): 6.97 µM
inhibition at 198 µM (HL-60; [8]): 100%
EC50 (RL; [7]): 11.1 µM
inhibition at 198 µM (RL; [9]): 93%
half-life (in vitro; hepatocytes): 27 min
EC50 (Mia-Pa-Ca-2): 3.32 µM
inhibition at 198 µM (Mia-Pa-Ca-2): 98.9%
inhibition at 198 µM (K562; Homo sapiens, K562, 72 h, percentage inhibition at the highest concentration tested; read-out: Top Inh): 94%
EC50 (K562; [10]): 9.16 µM

Nc1ncnc2c1ncn2[C@@H]1O[C@H](CO)C[C@H]1O [Cordycepin, reference compound]
EC50 (MOLT-4; [4]): 101 µM
inhibition at 198 µM (MOLT-4; Homo sapiens; MOLT-4, 72 h, percentage inhibition at the highest concentration tested; read-out: Top Inh): 76.5%
EC50 (HT29; [11]): 32.7 µM
inhibition at 198 µM (HT29; HT-29): 87%
EC50 (RPMI-8226; [12]): > 198 µM
inhibition at 198 µM (RPMI-8226; [13]): 17%
EC50 (HL-60; [7]): 118 µM
inhibition at 198 µM (HL-60; [8]): 56%
EC50 (RL; [7]): > 198 µM
inhibition at 198 µM (RL; [9]): 16.6%
half-life (in vitro; hepatocytes): 48 min
EC50 (Mia-Pa-Ca-2): 84.7 µM
inhibition at 198 µM (Mia-Pa-Ca-2): 88%
EC50 (K562; [10]): 118 µM
inhibition at 198 µM (K562; Homo sapiens; K562, 72 h, percentage inhibition at the highest concentration tested; read-out: Top Inh): 94%

O=c1[nH]c(=O)n([C@H]2C[C@H](O)[C@@H](CO)O2)cc1F [FUDR, 5-fluoro-2′-deoxyuridine, reference compound]
EC50 (HT29; [11]): 0.22 µM
inhibition at 198 µM (HT29; HT-29): 82%
EC50 (RPMI-8226; [12]): 0.11 µM
inhibition at 198 µM (RPMI-8226; [13]): 99%
EC50 (MCF-7; Homo sapiens, MCF7, absolute EC50, numeric values): 7.23 µM
inhibition at 198 µM (MCF-7; Homo sapiens, MCF7): 73%
half-life at 1 μM (in vitro; pooled cryopreserved hepatocytes): 69 min
EC50 (Mia-Pa-Ca-2): 0.35 µM
inhibition at 198 µM (Mia-Pa-Ca-2): 90%
EC50 (OVCAR 3; [14]): 2.32 µM
inhibition at 198 µM (OVCAR 3; OVCAR 3, 72 h): 66%
EC50 (CCRF-CEM; [15]): 0.04 µM
inhibition at 198 µM (CCRF-CEM; Homo sapiens): 91.9%
EC50 (HepG2; Homo sapiens; HepG2, 72 h, absolute EC50, numeric values; read-out: Ab EC50): 84 µM
inhibition at 198 µM (HepG2; [16]): 61%

C[C@H](NP(=O)(OC[C@H]1O[C@@H](n2cnc3c(N)nc(Cl)nc32)[C@H](F)C1O)Oc1ccccc1)C(=O)OCc1ccccc1 (stereo partly shown) [A, reference compound]
EC50 (MOLT-4; Homo sapiens, MOLT-4, 72 h, Table 3 classes, read-out: Ab EC50): 0.2 to 2 µM
EC50 (MOLT-4; Homo sapiens, MOLT-4, 72 h, Table 4 classes, read-out: Ab EC50): 0.2 to 1 µM
inhibition at 198 µM (MOLT-4; [3]): 93%
EC50 (HT29; HT-29, 72 h, Table 3 classes): 2 to 5 µM
EC50 (HT29; HT-29, 72 h, Table 4 classes): 1 to 5 µM
inhibition at 198 µM (HT29; HT-29, 72 h): 94%
EC50 (RPMI-8226; Homo sapiens, RPMI-8226, 72 h, read-out: Ab EC50, RPMI-8226, 72 h, Table 3 classes): 2 to 5 µM
EC50 (RPMI-8226; Homo sapiens, RPMI-8226, 72 h, read-out: Ab EC50, RPMI-8226, 72 h, Table 4 classes): 1 to 5 µM
inhibition at 198 µM (RPMI-8226; Homo sapiens, RPMI-8226, 72 h, read-out: Top Inh, RPMI-8226, 72 h, percentage inhibition at the highest concentration tested): 97%
EC50 (HL-60; read-out: Ab EC50, HL-60, 72 h, Table 3 classes): 0.2 to 2 µM
EC50 (HL-60; read-out: Ab EC50, HL-60, 72 h, Table 4 classes): 0.2 to 1 µM
inhibition at 198 µM (HL-60): 97%
inhibition at 198 µM (MCF-7; Homo sapiens, MCF7, 72 h): 99.6%
EC50 (MCF-7; Homo sapiens, MCF7, Table 3 classes): 5 to 10 µM
EC50 (MCF-7; Table 4 classes): 5 to 10 µM
EC50 (RL; read-out: Ab EC50, RL, 72 h, Table 3 classes): 2 to 5 µM
EC50 (RL; read-out: Ab EC50, RL, 72 h, Table 4 classes): 1 to 5 µM
inhibition at 198 µM (RL; read-out: Top Inh, RL, 72 h, percentage inhibition at the highest concentration tested): 99.8%
half-life at 1 μM (in vitro; hepatocytes): 24 min
EC50 (OVCAR 3; OVCAR 3, 72 h, Table 4 classes): > 10 µM
inhibition at 198 µM (OVCAR 3; OVCAR 3, 72 h): 94%
EC50 (K562; Homo sapiens, K562, 72 h, read-out: Ab EC50): > 10 µM
EC50 (K562; read-out: Ab EC50; K 562, 72 h, Table 4 classes): > 10 µM
EC50 (CCRF-CEM; Table 4 classes): < 0.2 µM
EC50 (CCRF-CEM; Homo sapiens, Table 3 classes): < 0.2 µM
inhibition at 198 µM (CCRF-CEM; Homo sapiens): 99.4%
EC50 (HepG2; Homo sapiens; HepG2, 72 h, Table 4 classes; read-out: Ab EC50): 5 to 10 µM
inhibition at 198 µM (HepG2; [16]): 99%
EC50 (KG-1; read-out: Ab EC50): 0.2 to 1 µM
inhibition at 198 µM (KG-1; read-out: Top Inhibit): 93%

C[C@H](NP(=O)(Oc1cccc2ccccc12)OP(=O)(O)OC[C@H]1O[C@@H](n2cc(F)c(=O)[nH]c2=O)CC1O)C(=O)OCc1ccccc1 (stereo partly drawn) [Example 4, 5-Fluoro-2′-deoxyuridine-5′-O-[1-naphthyl-(benzoxy-L-alaninyl)] Diphosphate Triethylammonium Salt]
EC50 (HT29; [1]): 0.25 µM
inhibition at 198 µM (HT29; HT-29, 72 h): 77%
EC50 (RPMI-8226; [5]): 0.05 µM
inhibition at 198 µM (RPMI-8226; [6]): 95%
EC50 (MCF-7; [2]): 15.8 µM
inhibition at 198 µM (MCF-7; Homo sapiens, MCF7, 72 h): 66%
half-life (in vitro; hepatocytes): 15 min
EC50 (Mia-Pa-Ca-2): 0.11 µM
inhibition at 198 µM (Mia-Pa-Ca-2): 67%
inhibition at 198 µM (OVCAR 3; OVCAR-3, 72 h): 67.5%
EC50 (OVCAR 3; [14]): 2.81 µM
EC50 (CCRF-CEM; [15]): 0.03 µM
inhibition at 198 µM (CCRF-CEM; Homo sapiens): 97.1%
EC50 (HepG2; Homo sapiens, HepG2, 72 h, absolute EC50, numeric values, read-out: Ab EC50): > 198 µM
inhibition at 198 µM (HepG2; Homo sapiens, HepG2, 72 h, percentage inhibition at the highest concentration tested, read-out: Top Inhibit): 48%
